Data from patent US9340590B2 (priority 2011, dated 2016).
Like-named read-outs stand apart in the source and are kept apart here. Positions of bridges follow the written chain, without caps; N, C: chain ends. Residues, ends and D or L forms follow the SMILES beside them.

Assays:
Test in all cases: cell-based
hNav1.3 = hNav1.3 (Homo sapiens, UniProt Q9NY46)
hNav1.5 = hNav1.5 (Homo sapiens, UniProt Q14524)
hNav1.7 = hNav1.7 (Homo sapiens, UniProt Q15858); assay type: cell-based
[1] = IonWorks Quattro, clamped to −110 mV, depolarized to −10 mV, 5 min after compound, n=2, read-out: IWQ Use Nav1.3
[2] = IonWorks Quattro, clamped to −110 mV, depolarized to −10 mV, 5 min after compound, n=2, read-out: IWQ Use Nav1.5
[3] = IonWorks Quattro, clamped to −110 mV, depolarized to −10 mV, 5 min after compound, n=2, read-out: IWQ Use Nav1.7

Chain of hNav1.3 (Q9NY46 whole entry, looked up): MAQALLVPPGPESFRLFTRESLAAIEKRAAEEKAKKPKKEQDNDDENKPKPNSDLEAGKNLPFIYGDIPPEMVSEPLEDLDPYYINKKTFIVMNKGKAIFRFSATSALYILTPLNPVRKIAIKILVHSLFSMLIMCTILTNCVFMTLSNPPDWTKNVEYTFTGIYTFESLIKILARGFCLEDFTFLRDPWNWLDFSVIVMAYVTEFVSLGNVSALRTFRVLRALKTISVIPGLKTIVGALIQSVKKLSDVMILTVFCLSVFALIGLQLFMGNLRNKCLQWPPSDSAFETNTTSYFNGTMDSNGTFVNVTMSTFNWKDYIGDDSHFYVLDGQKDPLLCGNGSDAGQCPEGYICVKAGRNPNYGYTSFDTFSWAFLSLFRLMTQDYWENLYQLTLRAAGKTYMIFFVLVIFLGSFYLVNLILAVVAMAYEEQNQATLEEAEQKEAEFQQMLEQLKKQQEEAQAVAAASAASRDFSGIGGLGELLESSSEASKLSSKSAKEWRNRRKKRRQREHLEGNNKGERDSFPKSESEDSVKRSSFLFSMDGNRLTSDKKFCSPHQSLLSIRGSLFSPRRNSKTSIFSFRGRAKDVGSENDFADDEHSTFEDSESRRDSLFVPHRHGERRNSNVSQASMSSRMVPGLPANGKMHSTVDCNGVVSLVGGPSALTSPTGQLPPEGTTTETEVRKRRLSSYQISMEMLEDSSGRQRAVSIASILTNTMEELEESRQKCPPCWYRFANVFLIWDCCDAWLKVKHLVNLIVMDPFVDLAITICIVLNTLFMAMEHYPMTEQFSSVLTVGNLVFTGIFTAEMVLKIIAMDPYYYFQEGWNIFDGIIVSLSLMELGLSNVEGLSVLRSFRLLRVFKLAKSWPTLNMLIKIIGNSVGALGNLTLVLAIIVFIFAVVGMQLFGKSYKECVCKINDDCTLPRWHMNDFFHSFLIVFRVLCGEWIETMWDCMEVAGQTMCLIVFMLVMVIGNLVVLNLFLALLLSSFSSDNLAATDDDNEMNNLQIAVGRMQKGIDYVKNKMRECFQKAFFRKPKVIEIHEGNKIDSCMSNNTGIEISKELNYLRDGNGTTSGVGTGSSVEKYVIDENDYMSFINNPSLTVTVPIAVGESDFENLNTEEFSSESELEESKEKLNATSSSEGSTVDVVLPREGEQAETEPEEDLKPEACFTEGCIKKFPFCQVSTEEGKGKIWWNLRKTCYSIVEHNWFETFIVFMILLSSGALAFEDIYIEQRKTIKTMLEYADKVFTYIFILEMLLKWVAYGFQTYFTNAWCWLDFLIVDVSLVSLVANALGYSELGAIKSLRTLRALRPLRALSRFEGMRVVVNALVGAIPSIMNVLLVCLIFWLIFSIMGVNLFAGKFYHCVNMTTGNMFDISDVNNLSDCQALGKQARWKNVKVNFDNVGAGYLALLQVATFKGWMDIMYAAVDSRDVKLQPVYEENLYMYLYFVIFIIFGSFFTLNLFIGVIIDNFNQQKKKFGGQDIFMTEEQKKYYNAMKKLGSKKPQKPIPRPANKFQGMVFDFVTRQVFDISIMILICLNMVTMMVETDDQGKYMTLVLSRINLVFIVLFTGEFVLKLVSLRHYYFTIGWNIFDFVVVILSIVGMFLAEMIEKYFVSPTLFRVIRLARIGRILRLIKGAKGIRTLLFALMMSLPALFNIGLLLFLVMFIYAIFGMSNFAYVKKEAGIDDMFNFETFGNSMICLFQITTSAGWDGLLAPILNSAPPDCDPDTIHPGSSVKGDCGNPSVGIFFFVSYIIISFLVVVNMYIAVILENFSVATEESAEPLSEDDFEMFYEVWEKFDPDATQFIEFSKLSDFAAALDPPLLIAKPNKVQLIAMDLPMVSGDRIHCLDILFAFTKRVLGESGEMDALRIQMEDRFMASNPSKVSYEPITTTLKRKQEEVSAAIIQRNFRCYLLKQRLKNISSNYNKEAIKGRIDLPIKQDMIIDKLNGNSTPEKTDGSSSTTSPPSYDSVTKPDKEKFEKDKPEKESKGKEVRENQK
Chain of hNav1.7 (Q15858 whole entry, looked up): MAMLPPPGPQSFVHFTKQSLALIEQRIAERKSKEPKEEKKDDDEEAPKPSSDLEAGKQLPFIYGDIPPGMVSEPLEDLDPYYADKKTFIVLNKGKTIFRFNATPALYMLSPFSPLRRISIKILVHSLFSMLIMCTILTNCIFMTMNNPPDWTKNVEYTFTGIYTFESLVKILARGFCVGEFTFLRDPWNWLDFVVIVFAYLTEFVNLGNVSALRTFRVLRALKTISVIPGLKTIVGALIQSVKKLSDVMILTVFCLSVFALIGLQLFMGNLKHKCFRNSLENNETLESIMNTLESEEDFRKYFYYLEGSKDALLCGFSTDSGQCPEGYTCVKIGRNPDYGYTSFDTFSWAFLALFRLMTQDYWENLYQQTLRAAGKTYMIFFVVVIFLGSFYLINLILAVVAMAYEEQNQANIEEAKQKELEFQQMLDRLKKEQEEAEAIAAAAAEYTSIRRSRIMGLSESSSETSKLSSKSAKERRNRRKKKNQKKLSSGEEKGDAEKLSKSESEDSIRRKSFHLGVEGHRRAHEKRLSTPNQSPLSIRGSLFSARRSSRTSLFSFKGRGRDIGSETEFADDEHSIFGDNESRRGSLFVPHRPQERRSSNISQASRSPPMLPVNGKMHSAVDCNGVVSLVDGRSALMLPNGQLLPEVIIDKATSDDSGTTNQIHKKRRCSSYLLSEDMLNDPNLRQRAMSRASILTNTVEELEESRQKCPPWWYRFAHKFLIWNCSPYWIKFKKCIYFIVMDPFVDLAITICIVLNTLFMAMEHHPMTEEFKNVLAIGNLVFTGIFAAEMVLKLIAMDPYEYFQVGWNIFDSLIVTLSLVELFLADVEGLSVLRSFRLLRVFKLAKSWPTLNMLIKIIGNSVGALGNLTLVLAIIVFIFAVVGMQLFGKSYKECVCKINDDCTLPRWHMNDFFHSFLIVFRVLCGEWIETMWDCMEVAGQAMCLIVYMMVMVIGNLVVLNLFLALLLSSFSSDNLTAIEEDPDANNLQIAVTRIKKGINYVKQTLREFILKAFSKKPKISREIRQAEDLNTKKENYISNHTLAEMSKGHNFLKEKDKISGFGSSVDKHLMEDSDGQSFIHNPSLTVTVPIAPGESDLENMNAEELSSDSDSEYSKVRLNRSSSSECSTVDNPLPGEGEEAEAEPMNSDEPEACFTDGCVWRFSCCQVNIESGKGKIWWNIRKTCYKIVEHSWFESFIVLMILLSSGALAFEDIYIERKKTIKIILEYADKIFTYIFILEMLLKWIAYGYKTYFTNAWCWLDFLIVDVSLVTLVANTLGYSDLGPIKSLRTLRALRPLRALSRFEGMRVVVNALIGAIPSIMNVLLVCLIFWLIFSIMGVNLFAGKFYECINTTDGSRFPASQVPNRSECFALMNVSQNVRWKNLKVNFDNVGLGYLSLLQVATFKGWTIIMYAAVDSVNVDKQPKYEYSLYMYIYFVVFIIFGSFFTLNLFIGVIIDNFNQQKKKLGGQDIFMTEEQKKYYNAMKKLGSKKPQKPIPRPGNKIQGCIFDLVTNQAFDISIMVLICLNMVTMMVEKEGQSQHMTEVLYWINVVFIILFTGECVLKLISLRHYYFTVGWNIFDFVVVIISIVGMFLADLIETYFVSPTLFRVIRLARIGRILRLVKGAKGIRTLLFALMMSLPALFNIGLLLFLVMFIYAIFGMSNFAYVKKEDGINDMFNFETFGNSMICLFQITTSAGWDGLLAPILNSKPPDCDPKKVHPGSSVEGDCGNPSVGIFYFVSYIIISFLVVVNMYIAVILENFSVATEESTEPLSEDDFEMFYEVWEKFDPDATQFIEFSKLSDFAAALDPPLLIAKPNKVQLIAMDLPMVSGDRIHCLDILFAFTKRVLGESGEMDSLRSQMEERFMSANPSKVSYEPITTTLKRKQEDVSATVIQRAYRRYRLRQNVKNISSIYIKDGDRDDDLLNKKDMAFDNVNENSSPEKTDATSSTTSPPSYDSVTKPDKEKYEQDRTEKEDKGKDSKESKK

SMILES | IC50 (hNav1.3; [1]) | IC50 (hNav1.5; [2]) | IC50 (hNav1.7; [3]) | IC50 (hNav1.3) | IC50 (hNav1.5; IWQ Use Nav1.5 (μM)) | IC50 (hNav1.7)
CC[C@H](C)[C@H](N)C(=O)N[C@H]1CSSC[C@@H]2NC(=O)[C@@H]3CSSC[C@@H](C(=O)N[C@@H](CCCCN)C(=O)N[C@@H](Cc4ccc(O)cc4)C(=O)N[C@H](C(=O)N[C@@H](Cc4ccccc4)C(N)=O)C(C)C)NC(=O)[C@H](Cc4c[nH]c5ccccc45)NC(=O)[C@H](CCCCN)NC(=O)[C@H](Cc4c[nH]cn4)NC(=O)[C@H]([C@@H](C)O)NC(=O)[C@H](CCCNC(=N)N)NC(=O)[C@H](CO)NC(=O)[C@H](CSSC[C@H](NC(=O)[C@H](CCCCN)NC(=O)[C@H](CCCNC(=N)N)NC(=O)[C@H](CCSC)NC(=O)[C@H](Cc4ccccc4)NC(=O)CNC(=O)[C@H](CC(C)C)NC1=O)C(=O)N[C@@H]([C@@H](C)CC)C(=O)N1CCC[C@H]1C(=O)N[C@@H](CC(=O)O)C(=O)N[C@@H](CC(N)=O)C(=O)N[C@@H](CC(=O)O)C(=O)N[C@@H](CCCCN)C(=O)N3)NC(=O)[C@H](C(C)C)NC(=O)[C@H](CC(C)C)NC(=O)[C@H](CC(N)=O)NC(=O)[C@@H]1CCCN1C(=O)[C@H](CCCNC(=N)N)NC2=O [SEQ ID NO: 189] (H-ICLGFMRKCIPDNDKCCRPNLVCSRTHKWCKYVF-NH2; disulfide 2-17, 9-23, 16-30) | 70 nM | 8.15 µM | 100 nM |  |  | 
CC[C@H](C)[C@@H]1NC(=O)[C@@H]2CSSC[C@@H]3NC(=O)[C@H](C(C)C)NC(=O)[C@H](CC(C)C)NC(=O)[C@H](CC(N)=O)NC(=O)[C@@H]4CCCN4C(=O)[C@H](CCCNC(=N)N)NC(=O)[C@H](CSSC[C@H](NC(=O)[C@@H]4CCCN4)C(=O)N[C@@H](CC(C)C)C(=O)NCC(=O)N[C@@H](Cc4ccccc4)C(=O)N[C@@H](CCSC)C(=O)N[C@@H](CCCNC(=N)N)C(=O)N[C@@H](CCCCN)C(=O)N2)NC(=O)[C@H](CSSC[C@@H](C(=O)N[C@@H](CCCCN)C(=O)N[C@@H](Cc2ccc(O)cc2)C(=O)N[C@H](C(=O)N[C@@H](Cc2ccccc2)C(N)=O)C(C)C)NC(=O)[C@H](Cc2c[nH]c4ccccc24)NC(=O)[C@H](CCCCN)NC(=O)[C@H](Cc2c[nH]cn2)NC(=O)[C@H]([C@@H](C)O)NC(=O)[C@H](CCCNC(=N)N)NC(=O)[C@H](CO)NC3=O)NC(=O)[C@H](CCCCN)NC(=O)[C@H](CC(=O)O)NC(=O)[C@H](CC(N)=O)NC(=O)[C@H](CC(=O)O)NC(=O)[C@@H]2CCCN2C1=O [SEQ ID NO: 190] (H-PCLGFMRKCIPDNDKCCRPNLVCSRTHKWCKYVF-NH2; disulfide 2-17, 9-23, 16-30) | 40 nM | 9.73 µM | 90 nM |  |  | 
CC[C@H](C)[C@@H]1NC(=O)[C@@H]2CSSC[C@@H]3NC(=O)[C@H](C(C)C)NC(=O)[C@H](CC(C)C)NC(=O)[C@H](CC(N)=O)NC(=O)[C@@H]4CCCN4C(=O)[C@H](CCCNC(=N)N)NC(=O)[C@H](CSSC[C@H](NC(=O)[C@@H](N)CO)C(=O)N[C@@H](CC(C)C)C(=O)NCC(=O)N[C@@H](Cc4ccccc4)C(=O)N[C@@H](CCSC)C(=O)N[C@@H](CCCNC(=N)N)C(=O)N[C@@H](CCCCN)C(=O)N2)NC(=O)[C@H](CSSC[C@@H](C(=O)N[C@@H](CCCCN)C(=O)N[C@@H](Cc2ccc(O)cc2)C(=O)N[C@H](C(=O)N[C@@H](Cc2ccccc2)C(N)=O)C(C)C)NC(=O)[C@H](Cc2c[nH]c4ccccc24)NC(=O)[C@H](CCCCN)NC(=O)[C@H](Cc2c[nH]cn2)NC(=O)[C@H]([C@@H](C)O)NC(=O)[C@H](CCCNC(=N)N)NC(=O)[C@H](CO)NC3=O)NC(=O)[C@H](CCCCN)NC(=O)[C@H](CC(=O)O)NC(=O)[C@H](CC(N)=O)NC(=O)[C@H](CC(=O)O)NC(=O)[C@@H]2CCCN2C1=O [SEQ ID NO: 191] (H-SCLGFMRKCIPDNDKCCRPNLVCSRTHKWCKYVF-NH2; disulfide 2-17, 9-23, 16-30) | 50 nM | 9.4 µM | 70 nM |  |  | 
CC[C@H](C)[C@@H]1NC(=O)[C@@H]2CSSC[C@@H]3NC(=O)[C@H](C(C)C)NC(=O)[C@H](CC(C)C)NC(=O)[C@H](CC(N)=O)NC(=O)[C@@H]4CCCN4C(=O)[C@H](CCCNC(=N)N)NC(=O)[C@H](CSSC[C@H](NC(=O)[C@@H](N)[C@@H](C)O)C(=O)N[C@@H](CC(C)C)C(=O)NCC(=O)N[C@@H](Cc4ccccc4)C(=O)N[C@@H](CCSC)C(=O)N[C@@H](CCCNC(=N)N)C(=O)N[C@@H](CCCCN)C(=O)N2)NC(=O)[C@H](CSSC[C@@H](C(=O)N[C@@H](CCCCN)C(=O)N[C@@H](Cc2ccc(O)cc2)C(=O)N[C@H](C(=O)N[C@@H](Cc2ccccc2)C(N)=O)C(C)C)NC(=O)[C@H](Cc2c[nH]c4ccccc24)NC(=O)[C@H](CCCCN)NC(=O)[C@H](Cc2c[nH]cn2)NC(=O)[C@H]([C@@H](C)O)NC(=O)[C@H](CCCNC(=N)N)NC(=O)[C@H](CO)NC3=O)NC(=O)[C@H](CCCCN)NC(=O)[C@H](CC(=O)O)NC(=O)[C@H](CC(N)=O)NC(=O)[C@H](CC(=O)O)NC(=O)[C@@H]2CCCN2C1=O [SEQ ID NO: 192] (H-TCLGFMRKCIPDNDKCCRPNLVCSRTHKWCKYVF-NH2; disulfide 2-17, 9-23, 16-30) | 70 nM | 9.21 µM | 110 nM |  |  | 
CC[C@H](C)[C@@H]1NC(=O)[C@@H]2CSSC[C@@H]3NC(=O)[C@H](C(C)C)NC(=O)[C@H](CC(C)C)NC(=O)[C@H](CC(N)=O)NC(=O)[C@@H]4CCCN4C(=O)[C@H](CCCNC(=N)N)NC(=O)[C@H](CSSC[C@H](NC(=O)[C@@H](N)CC(=O)O)C(=O)N[C@@H](CC(C)C)C(=O)NCC(=O)N[C@@H](C)C(=O)N[C@@H](Cc4ccccc4)C(=O)N[C@@H](CCCNC(=N)N)C(=O)N[C@@H](CCCCN)C(=O)N2)NC(=O)[C@H](CSSC[C@@H](C(=O)N[C@@H](CCCCN)C(=O)N[C@@H](Cc2ccc(O)cc2)C(=O)N[C@H](C(=O)N[C@@H](Cc2ccccc2)C(N)=O)C(C)C)NC(=O)[C@H](Cc2c[nH]c4ccccc24)NC(=O)[C@H](CCCNC(=N)N)NC(=O)[C@H](Cc2cnc[nH]2)NC(=O)[C@H](CC(C)C)NC(=O)[C@H](CCCNC(=N)N)NC(=O)[C@H](CO)NC3=O)NC(=O)[C@H](CCCCN)NC(=O)[C@H](CC(=O)O)NC(=O)[C@H](CC(N)=O)NC(=O)[C@H](CC(=O)O)NC(=O)[C@@H]2CCCN2C1=O [SEQ ID NO: 262, [Ala5,Phe6,Leu26,Arg28]GpTx-1] (H-DCLGAFRKCIPDNDKCCRPNLVCSRLHRWCKYVF-NH2; disulfide 2-17, 9-23, 16-30) |  |  |  | 40 nM | 5 µM | 50 nM
CC[C@H](C)[C@@H]1NC(=O)[C@@H]2CSSC[C@@H]3NC(=O)[C@H](C(C)C)NC(=O)[C@H](CC(C)C)NC(=O)[C@H](CC(N)=O)NC(=O)[C@@H]4CCCN4C(=O)[C@H](CCCNC(=N)N)NC(=O)[C@H](CSSC[C@H](NC(=O)[C@@H](N)CC(=O)O)C(=O)N[C@@H](CC(C)C)C(=O)NCC(=O)N[C@@H](Cc4cn(C)c5ccccc45)C(=O)N[C@@H](CCSC)C(=O)N[C@@H](CCCNC(=N)N)C(=O)N[C@@H](CCCCN)C(=O)N2)NC(=O)[C@H](CSSC[C@@H](C(=O)N[C@@H](CCCCN)C(=O)N[C@@H](Cc2ccc(O)cc2)C(=O)N[C@H](C(=O)N[C@@H](Cc2ccccc2)C(N)=O)C(C)C)NC(=O)[C@H](Cc2c[nH]c4ccccc24)NC(=O)[C@H](CCCCN)NC(=O)[C@H](Cc2c[nH]cn2)NC(=O)[C@H]([C@@H](C)O)NC(=O)[C@H](CCCNC(=N)N)NC(=O)[C@H](CO)NC3=O)NC(=O)[C@H](CCCCN)NC(=O)[C@H](CC(=O)O)NC(=O)[C@H](CC(N)=O)NC(=O)[C@H](CC(=O)O)NC(=O)[C@@H]2CCCN2C1=O [SEQ ID NO: 264] | 90 nM | 8.17 µM | 90 nM |  |  | 
CC[C@H](C)[C@@H]1NC(=O)[C@@H]2CSSC[C@@H]3NC(=O)[C@H](C(C)C)NC(=O)[C@H](CC(C)C)NC(=O)[C@H](CC(N)=O)NC(=O)[C@@H]4CCCN4C(=O)[C@H](CCCNC(=N)N)NC(=O)[C@H](CSSC[C@H](NC(=O)[C@@H](N)CC(=O)O)C(=O)N[C@@H](CC(C)C)C(=O)NCC(=O)NCC(=O)N[C@@H](CCSC)C(=O)N[C@@H](CCCNC(=N)N)C(=O)N[C@@H](CCCCN)C(=O)N2)NC(=O)[C@H](CSSC[C@@H](C(=O)N[C@@H](CCCCN)C(=O)N[C@@H](Cc2ccc(O)cc2)C(=O)N[C@H](C(=O)N[C@@H](Cc2ccccc2)C(N)=O)C(C)C)NC(=O)[C@H](Cc2c[nH]c4ccccc24)NC(=O)[C@H](CCCCN)NC(=O)[C@H](Cc2cnc[nH]2)NC(=O)[C@H]([C@@H](C)O)NC(=O)[C@H](CCCNC(=N)N)NC(=O)[C@H](CO)NC3=O)NC(=O)[C@H](CCCCN)NC(=O)[C@H](CC(=O)O)NC(=O)[C@H](CC(N)=O)NC(=O)[C@H](CC(=O)O)NC(=O)[C@@H]2CCCN2C1=O [SEQ ID NO: 265] (H-DCLGGMRKCIPDNDKCCRPNLVCSRTHKWCKYVF-NH2; disulfide 2-17, 9-23, 16-30) | 1240 nM | 7.47 µM | 750 nM |  |  | 
CC[C@H](C)[C@@H]1NC(=O)[C@@H]2CSSC[C@@H]3NC(=O)[C@H](C(C)C)NC(=O)[C@H](CC(C)C)NC(=O)[C@H](CC(N)=O)NC(=O)[C@@H]4CCCN4C(=O)[C@H](CCCNC(=N)N)NC(=O)[C@H](CSSC[C@H](NC(=O)[C@@H](N)CC(=O)O)C(=O)N[C@@H](CC(C)C)C(=O)NCC(=O)N[C@@H](Cc4c[nH]cn4)C(=O)N[C@@H](CCSC)C(=O)N[C@@H](CCCNC(=N)N)C(=O)N[C@@H](CCCCN)C(=O)N2)NC(=O)[C@H](CSSC[C@@H](C(=O)N[C@@H](CCCCN)C(=O)N[C@@H](Cc2ccc(O)cc2)C(=O)N[C@H](C(=O)N[C@@H](Cc2ccccc2)C(N)=O)C(C)C)NC(=O)[C@H](Cc2c[nH]c4ccccc24)NC(=O)[C@H](CCCCN)NC(=O)[C@H](Cc2c[nH]cn2)NC(=O)[C@H]([C@@H](C)O)NC(=O)[C@H](CCCNC(=N)N)NC(=O)[C@H](CO)NC3=O)NC(=O)[C@H](CCCCN)NC(=O)[C@H](CC(=O)O)NC(=O)[C@H](CC(N)=O)NC(=O)[C@H](CC(=O)O)NC(=O)[C@@H]2CCCN2C1=O [SEQ ID NO: 266] (H-DCLGHMRKCIPDNDKCCRPNLVCSRTHKWCKYVF-NH2; disulfide 2-17, 9-23, 16-30) | 8370 nM | 6.62 µM | 4740 nM |  |  | 
